Data from patent US20240246937A1 (MERCK SHARP & DOHME LLC, priority 2021, published 2024).

biological target: recombinant IL4I1 (Homo sapiens (Human), UniProt Q96RQ9); assay: IL4I1 Enzymatic Assay (Amplex Red/HRP coupled fluorescence detection of H2O2); type: biochemical; details: 240 min; recombinant IL4I1, four-hour pre-incubation with compound
Procedure, shortened: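 Recombinant human IL4I1 (1 nM final) pre-incubated 4 h with compound at ambient temperature in 50 mM Hepes pH 7.0, 0.005% Tween20. Started with 1 mM each Phe/Tyr/Trp plus Amplex Red/HRP; H2O2-derived resorufin fluorescence read after 120 min; EC50 from ten-point 1:3 titration, four-parameter fit.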

Sequence of recombinant IL4I1 (Q96RQ9 22-567): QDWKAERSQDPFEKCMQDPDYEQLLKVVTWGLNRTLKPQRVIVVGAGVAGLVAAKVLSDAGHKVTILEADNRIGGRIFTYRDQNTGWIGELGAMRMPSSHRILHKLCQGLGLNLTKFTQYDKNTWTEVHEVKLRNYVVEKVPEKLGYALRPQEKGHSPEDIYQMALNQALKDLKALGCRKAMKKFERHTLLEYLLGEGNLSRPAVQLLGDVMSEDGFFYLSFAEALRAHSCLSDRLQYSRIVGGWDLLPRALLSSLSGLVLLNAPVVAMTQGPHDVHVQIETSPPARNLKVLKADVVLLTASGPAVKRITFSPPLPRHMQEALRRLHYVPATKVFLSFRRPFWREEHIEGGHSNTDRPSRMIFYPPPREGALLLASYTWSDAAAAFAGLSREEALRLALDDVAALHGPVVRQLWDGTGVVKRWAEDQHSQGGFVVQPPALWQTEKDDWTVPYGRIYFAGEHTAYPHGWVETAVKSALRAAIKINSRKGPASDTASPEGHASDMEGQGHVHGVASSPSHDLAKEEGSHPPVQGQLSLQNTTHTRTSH

EC50 [nM] | Structure (SMILES)
4 | O=c1c(=O)n(C23CC(C2)C3)ccn1Cc1ccc(-c2ccccc2)cn1 [Example 115, 1-(bicyclo[1.1.1]pentan-1-yl)-4-((5-phenylpyridin-2-yl)methyl)-1,4-dihydropyrazine-2,3-dione]
6 | O=c1c(=O)n(C2CCCC2)ccn1Cc1cc(-c2ccccn2)no1 [Example 163, 1-cyclopentyl-4-((3-(pyridin-2-yl)isoxazol-5-yl)methyl)-1,4-dihydropyrazine-2,3-dione]
40 | CC1(n2ccn(Cc3ccc(-n4cccn4)cn3)c(=O)c2=O)CC1 [Example 381, 1-((5-(1H-pyrazol-1-yl)pyridin-2-yl)methyl)-4-(1-methylcyclopropyl)-1,4-dihydropyrazine-2,3-dione]
2 | O=c1c(=O)n(C2CCC2)ccn1Cc1cc(-c2cccc(F)c2)on1 [Example 54, 1-cyclobutyl-4-((5-(3-fluorophenyl)isoxazol-3-yl)methyl)-1,4-dihydropyrazine-2,3-dione]
316 | N#CC1(n2ccn(Cc3cc(-c4cccnc4)no3)c(=O)c2=O)CC1 [Example 222, 1-(2,3-dioxo-4-((3-(pyridin-3-yl)isoxazol-5-yl)methyl)-3,4-dihydropyrazin-1(2H)-yl)cyclopropane-1-carbonitrile]
4 | CC1(n2ccn(Cc3cc(-c4ccc(F)cc4)no3)c(=O)c2=O)CCC1 [Example 189, 1-((3-(4-fluorophenyl)isoxazol-5-yl)methyl)-4-(1-methylcyclobutyl)-1,4-dihydropyrazine-2,3-dione]

Further lines, the compound ahead of its results:

Structure (SMILES) | EC50 [nM]
CC(CN1CCN(C2CCCC2)C(=O)C1=O)c1nnc(-c2ccccc2)s1 (stereo not drawn) [Example 353, 1-cyclopentyl-4-(2-(5-phenyl-1,3,4-thiadiazol-2-yl)propyl)piperazine-2,3-dione] | 11
O=c1c(=O)n(C2(CF)CC2)ccn1Cc1ccc(-n2nccn2)nc1 [Example 264, 1-((6-(2H-1,2,3-triazol-2-yl)pyridin-3-yl)methyl)-4-(1-(fluoromethyl)cyclopropyl)-1,4-dihydropyrazine-2,3-dione] | 73
N#CC1(n2ccn(Cc3ccc(-c4ccccn4)nn3)c(=O)c2=O)CC1 [Example 91, 1-(2,3-dioxo-4-((6-(pyridin-2-yl)pyridazin-3-yl)methyl)-3,4-dihydropyrazin-1(2H)-yl)cyclopropane-1-carbonitrile] | 162
O=C1C(=O)N(C2CCC2)CCN1Cc1ccc(-c2ccccc2)cn1 [Example 26, 1-cyclobutyl-4-((5-phenylpyridin-2-yl)methyl)piperazine-2,3-dione] | 6
O=c1c(=O)n(C2CCCC2)ccn1Cc1ccc(-c2ccccc2F)nn1 [Example 53, 1-cyclopentyl-4-((6-(2-fluorophenyl)pyridazin-3-yl)methyl)-1,4-dihydropyrazine-2,3-dione] | 7
O=C1C(=O)N(C2CCCC2)CCN1Cc1ccc(N2CCC(F)(F)C2)nn1 [Example 319, 1-cyclopentyl-4-((6-(3,3-difluoropyrrolidin-1-yl)pyridazin-3-yl)methyl)piperazine-2,3-dione] | 30
CC1CCC(N2CCN(Cc3ncc(-c4ccccc4)cn3)C(=O)C2=O)C1 (single isomer, unassigned) [Example 344, (R or S, R or S)-1-(3-methylcyclopentyl)-4-((5-phenylpyrimidin-2-yl)methyl)piperazine-2,3-dione] | 49
O=C1C(=O)N(C23CC(F)(C2)C3)CCN1Cc1ccc(-n2nccn2)cn1 [Example 244, 1-((5-(2H-1,2,3-triazol-2-yl)pyridin-2-yl)methyl)-4-(3-fluorobicyclo[1.1.1]pentan-1-yl)piperazine-2,3-dione] | 45
O=C1C(=O)N([C@H]2C[C@H]3C[C@H]3C2)CCN1Cc1nnc(-c2ccccc2)s1 [Example 283, 1-((cis)-bicyclo[3.1.0]hexan-3-yl)-4-((5-phenyl-1,3,4-thiadiazol-2-yl)methyl)piperazine-2,3-dione] | 7
